Values after ≈ are worked out from the molar mass of the structure shown. Where two headings read alike, the source gives them in different places.
Key:
[1] = system: C. necator (R. eutropha); assay: MIC evaluation of 3-HP, C. necator (R. eutropha) aerobic, FGN media, 96 well-plate, 24 h (Common Methods); type: cell-based; settings: for % Increase Over Control: supplements none, vs control, aerobic
Experimental: For MIC evaluations, the final results are expressed in chemical agent concentrations determined by analysis of the stock solution by HPLC (i.e., see Subsection IIIb). The minimum inhibitory concentration (MIC) was determined aerobically in a 96 well-plate format. […] Media supplements were added according to levels reported in Supplements Table, where specified. Overnight cultures of strains were grown in triplicate in 5 mL LB (with antibiotic where appropriate). […] The cells were further diluted 1:50 and a 10 μL aliquot was used to inoculate each well of a 96 well plate (˜10^4 cells per well) to total volume of 100 uL. […] Plates were incubated for 24 hours at 30 C.

[2] = system: E. coli; assay: microbe, parasite or virus in culture; type: cell-based; settings: for MIC: Escherichia coli, BW25113, read-out: MIC Assay Result (g/L 3-HP), aerobic; for % Increase Over Control: aerobic
Experimental: For MIC evaluations, the final results are expressed in chemical agent concentrations determined by analysis of the stock solution by HPLC (i.e., see Subsection IIIb).
The minimum inhibitory concentration (MIC) was determined aerobically in a 96 well-plate format. […] Media supplements were added according to levels reported in the Supplements Table, where specified. Overnight cultures of strains were grown in triplicate in 5 mL LB (with antibiotic where appropriate). A 1% (v/v) inoculum was introduced into a 5 ml culture of M9 minimal media.

O=C(O)CCO [3-HP, 3-hydroxypropionic acid]
% Increase Over Control ([1]; C. necator DSM 542, EZ Rich media): 200% | % Increase Over Control ([1]; C. necator DSM 542, FGN media): 0% | MIC ([1]; read-out: average MIC Assay Result (g/L 3-HP), C. necator DSM428, FGN media, supplements none (control), aerobic): 15 g/L (≈ 167 mM) | MIC ([1]; read-out: average MIC Assay Result (g/L 3-HP), C. necator DSM 542, EZ Rich media, supplements none, aerobic): 60 g/L (≈ 666 mM) | MIC ([1]; read-out: average MIC Assay Result (g/L 3-HP), C. necator DSM 542, FGN media, supplements none, aerobic): 15 g/L (≈ 167 mM) | MIC ([2]; strain BW25113, no modifications (control), M9): 27.5 g/L (≈ 305 mM) | MIC ([2]; strain BX_00002.0: BW25113 wild type, pKK223-mcs1 (control), M9 + Amp (100 μg/mL)): 20 g/L | MIC ([2]; strain BX_00003.0: BW25113 wild type, pBT-3 (control), M9 + Cm (20 μg/mL)): 25 g/L | MIC ([2]; strain BX_00118.0: BW25113 wild type, pJ251 (control), M9 + Kan (20 μg/mL)): 25 g/L | MIC ([2]; strain BX_00138.0: BW25113 wild type, pSmart-LC-Kan (control), M9 + Kan (20 μg/mL)): 25 g/L | MIC ([2]; strain BX_00142.0: BW25113 wild type, pSmart-LC-kan, pBT-3 (control), M9 + Kan (20 μg/mL), Cm (20 μg/mL)): 20 g/L | MIC ([2]; strain BX_00144.0: BW25113 wild type, pSmart-HC-Amp (control), M9 + Amp (100 μg/mL)): 25 g/L | MIC ([2]; strain BX_00300.0: BW25113 wild type, pSmart-LC-Kan-tyrA-aroF, M9 + Kan 20 μg/mL): 35 g/L | MIC ([2]; strain BX_00302.0: BW25113 wild type, pSmart-LC-Kan-folA-ORF, M9 + Kan 20 μg/mL): 30 g/L | MIC ([2]; strain BX_00305.0: BW25113 wild type, pSmart-LC-Kan-pheA-C1, M9 + Kan 20 μg/mL): 35 g/L | MIC ([2]; strain BX_00307.0: BW25113 wild type, pSmart-LC-Kan-tyrA-C1, M9 + Kan 20 μg/mL): 35 g/L | MIC ([2]; strain BX_00309.0: BW25113 wild type, pSmart-LC-Kan-cynTS, M9 + Kan 20 μg/mL): 35 g/L | MIC ([2]; strain BX_00310.0: BW25113 wild type, pSmart-LC-Kan-glyA, M9 + Kan 20 μg/mL): 35 g/L | MIC ([2]; strain BX_00312.0: BW25113 wild type, pSmart-LC-Kan-serA, M9 + Kan 20 μg/mL): 35 g/L | MIC ([2]; strain BX_00313.0: BW25113 wild type, pSmart-LC-Kan-folD, M9 + Kan 20 μg/mL): 30 g/L | MIC ([2]; strain BX_00314.0: BW25113 wild type, pSmart-LC-Kan-aroE, M9 + Kan 20 μg/mL): 35 g/L | MIC ([2]; strain BX_00315.0: BW25113 wild type, pSmart-LC-Kan-aroKB C1, M9 + Kan 20 μg/mL): 35 g/L | MIC ([2]; strain BX_00317.0: BW25113 wild type, pSmart-LC-Kan-ilvA operon, M9 + Kan 20 μg/mL): 35 g/L | MIC ([2]; strain BX_00318.0: BW25113 wild type, pSmart-LC-Kan-cysM, M9 + Kan 20 μg/mL): 35 g/L | MIC ([2]; strain BX_00319.0: BW25113 wild type, pK223-aroH, M9 + Amp 100 μg/mL + 1 mM IPTG): 30 g/L | MIC ([2]; strain BX_00322.0: BW25113 wild type, pJ61-speFED, M9 + Kan 20 μg/mL): 35 g/L | MIC ([2]; strain BX_00323.0: BW25113 wild type, pJ61-aroG, M9 + Kan 20 μg/mL): 35 g/L | MIC ([2]; strain BX_00324.0: BW25113 wild type, pJ61-thrA, M9 + Kan 20 μg/mL): 35 g/L | MIC ([2]; strain BX_00325.0: BW25113 wild type, pJ61-asd, M9 + Kan 20 μg/mL): 35 g/L | MIC ([2]; strain BX_00326.0: BW25113 wild type, pJ61-ilvA, M9 + Kan 20 μg/mL): 35 g/L | MIC ([2]; strain BX_00327.0: BW25113 wild type, pJ61-cysM, M9 + Kan 20 μg/mL): 35 g/L | MIC ([2]; strain BX_00335.0: BW25113 wild type, pSmart-HC-Amp-prs, M9 + Amp 100 μg/mL): 35 g/L | MIC ([2]; strain BX_00336.0: BW25113 wild type, pSmart-HC-Amp-nrdAB, M9 + Amp 100 μg/mL): 35 g/L | MIC ([2]; strain BX_00337.0: BW25113 wild type, pSmart-HC-Amp-nrdEF, M9 + Amp 100 μg/mL): 35 g/L | MIC ([2]; strain BX_00352.0: BW25113 wild type, pSmart-LC-Kan-metC C1, M9 + Amp 100 μg/mL): 35 g/L | MIC ([2]; strain BX_00353.0: BW25113 wild type, pSmart-HC-Amp-metC, M9 + Amp 100 μg/mL): 45 g/L | MIC ([2]; strain BX_00354.0: BW25113 wild type, pSmart-HC-Amp-cynTS, M9 + Amp 100 μg/mL): 45 g/L | MIC ([2]; strain BX_00356.0: BW25113 wild type, pSmart-HC-Amp-LysA, M9 + Amp 100 μg/mL): 30 g/L | MIC ([2]; strain BX_00357.0: BW25113 wild type, pKK223-aroH*445, M9 + Amp 100 μg/mL + 1 mM IPTG): 30 g/L | MIC ([2]; strain BX_00359.0: BW25113 wild type, pKK223-aroH*457, M9 + Amp 100 μg/mL + 1 mM IPTG): 35 g/L | MIC ([2]; strain BX_00361.0: BW25113 wild type, pACYC177 (Kan only)-cynTS, M9 + Kan 20 μg/mL): 35 g/L | MIC ([2]; strain BX_00362.0: BW25113 wild type, pACYC177 (Kan only)-aroH, M9 + Kan 20 μg/mL + 1 mM IPTG): 30 g/L | MIC ([2]; strain BX_00363.0: BW25113 wild type, pACYC177 (kan only)-speB, M9 + Kan 20 μg/mL): 35 g/L | MIC ([2]; strain BX_00364.0: BW25113 wild type, pACYC177 (Kan only)-metE (Version1) (SS090608_13), M9 + Kan 20 μg/mL + 1 mM IPTG): 35 g/L | MIC ([2]; strain BX_00365.0: BW25113 wild type, pACYC177 (Kan only)-metC (Version1) (SS090608_17), M9 + Kan 20 μg/mL): 35 g/L | MIC ([2]; strain BX_00368.0: BW25113 wild type, pBT-3-cynTS, M9 + Cm (20 μg/mL)): 30 g/L | MIC ([2]; strain BX_00370.0: BW25113 wild type, pBT-3-speB, M9 + Cm (20 μg/mL)): 30 g/L | % Increase Over Control ([2]; strain BX_00301.0 (pSmart-LC-Kan-folA-C1)): 40% | % Increase Over Control ([2]; strain BX_00302.0 (pSmart-LC-Kan-folA-ORF)): 20% | % Increase Over Control ([2]; strain BX_00304.0 (pSmart-LC-Kan-menA-ORF)): 40% | % Increase Over Control ([2]; strain BX_00305.0 (pSmart-LC-Kan-pheA-C1)): 40% | % Increase Over Control ([2]; strain BX_00307.0 (pSmart-LC-Kan-tyrA-C1)): 40% | % Increase Over Control ([2]; strain BX_00309.0 (pSmart-LC-Kan-cynTS)): 40% | % Increase Over Control ([2]; strain BX_00310.0 (pSmart-LC-Kan-glyA)): 40% | % Increase Over Control ([2]; strain BX_00312.0 (pSmart-LC-Kan-serA)): 40% | % Increase Over Control ([2]; strain BX_00313.0 (pSmart-LC-Kan-folD)): 20% | % Increase Over Control ([2]; strain BX_00314.0 (pSmart-LC-Kan-aroE)): 40%
